The test system of test [1] is IgM antibody production from murine spleen B cells. The test is described as follows: Effects on the IgM antibody production from murine spleen cells (LPS + IL4). It counts as cell-based, BALB/c mouse. The settings on record: Mus musculus, B-cell, 168 h; spleen B cells, LPS 10 μg/ml, IL4 100 U/ml, 7 days, enzyme-immunoassay; read-out: IC50 value, IgM antibody production. Here is the method:
(§1) Using murine spleen B cells, the effects of the compound of the formula (I) on the IgGl, IgM and IgE antibody production induced by the stimulation by LPS (lipopolysaccharide; Product No. 520.02051, manufactured by Wako Junyaku) and IL4 (interleukin 4), were studied. Namely, spleen cells of a BALB/c mouse were treated with a murine anti-Thy-1 antibody (obtained from Chiba University) and a rabbit complement (Product No. 3051, manufactured by cedarlane) to remove T cells, and 3×10^5 spleen B cells were cultured for 7 days together with 10 μg/ml of LPS, 100 U/ml of mouse-recombinant IL4 (Product No. MIL-4C, manufactured by Genzyme) and each concentration (from […]) of the compound of the formula (I) on a microplate with 96 wells by a 10% FCS-RPMI solution (in an incubator, 5% CO2, at 37° C.).
(§2) For the basic procedure of this test, reference was made to The Journal of Immunology, Vol. 136, p. 4538, (1986).
(§3) The amount of each antibody in the cell culture supernatant hereby obtained, was measured by the following enzyme-immunoassay. Firstly, on a microplate with 96 wells, 1 μg/ml of a rabbit anti-mouse IgGl antibody (Product No. 36243, manufactured by Cappel), 1 μg/ml of a goat anti-mouse IgM antibody (Product No. 0611-0201, manufactured by Cappel) or 10 μg/ml of a rat anti-mouse IgE monoclonal antibody (Product No. LO-ME-2, manufactured by Experimental Immunology) was coated (50 μl/well, at room temperature for 60 minutes), and then a nonspecific bond was blocked by a 0.1% bovine serum albumin-containing 10 mM sodium phosphate buffer (pH 7.2) (at room temperature for 60 minutes). Then, the above-mentioned cell culture supernatant or its diluted solution was added in an amount of 50 μl/well and reacted at room temperature for 60 minutes. Further, an alkaline phosphatase-labeled rabbit anti-mouse IgGl antibody (Product No. 61-0122, manufactured by Zymet) diluted 1,000 times, an alkaline phosphatase-labeled rabbit anti-mouse IgM antibody (Product No. 61-6822, manufactured by Zymet) diluted 2,000 times, or an alkaline phosphatase-labeled goat anti-mouse IgE antibody (Product No. PA-284, manufactured by Binding Site) diluted 500 times was added in an amount of 50 μl/well and reacted at room temperature for 60 minutes. 100 μl/well of a 10% diethanol amine buffer solution (pH 9.8) containing p-nitrophenyl phosphate as an enzyme substrate, was reacted, and the absorbance at 405 nm was measured. The amount of each antibody was calculated from the calibration curve of each standard antibody, and the IC50 value of the compound of the formula (I) on the antibody production was calculated using as the control value a value obtained in the absence of the compound of the formula (I).

Another test deals with murine thymocytes. As to the kind of experiment: Effects on the mitogenic response by murine thymocytes (Con A stimulation, 3H-TdR uptake). It counts as cell-based, BALB/c murine. To be noted: Mus musculus, Thymocyte; BALB/c thymocytes, Con A 5 μg/ml, 48 hours, 3H-TdR uptake; read-out: IC50 value, a (mitogenic response of murine thymocytes). Here is the method: Using BALB/c murine thymocytes, the effect of the compound of the formula (I) on the mitogenic response of lymphocytes to the stimulation by concanavalin A (hereinafter referred to simply as Con A, Product No. L-1000, manufactured by Vector Laboratories) was studied. Namely, 4×10^5 murine thymocytes were cultured for 48 hours on a microplate with 96 wells in a RPMI1640 solution containing 10% of a fetal bovine serum (hereinafter referred to simply as a 10% FCS-RPMI solution) together with Con A (5 μg/ml) and the compound of the formula (I) (in an incubator, 5% CO2, at 37° C.). Then, 0.5 μCi of ^3 H-thymidine (hereinafter referred to simply as ^3 H-TdR) was added thereto, and the mixture was further cultured for 4 hours. Then, cells were collected by a cell harvester, and the radioactivity (dpm) of ^3 H-TdR uptaken into cells was measured. Such measured amounts of ^3 H-TdR uptaken into the cells were used as indices of the mitogenic response of the murine thymocytes, and the radioactivity at each concentration (from 0.001 to 1,000 μg/ml) of the compound of the formula (I) was compared with the control value treated solely by Con A, to calculate IC50 value. In these Tables 12 and 13, the results of murine thymocytes are shown by (a).
For the basic procedure of this test, reference was made to Selected methods in cellular immunology, p. 144-146 (translated by Katsuyuki Imai et al., published by Rikogakusha, (1982)).

The test system of another test is murine bone mallow cells. The test is described as follows: Effects on the murine bone mallow cells (proliferation, 3H-TdR uptake). It counts as cell-based, BALB/c mouse. To be noted: Mus musculus, bone marrow cells; 20% L929 culture supernatant, 48 hours, 3H-TdR uptake; Tables 12-15; read-out: IC50 value, c (murine bone mallow cells). The method, then:
Bone mallow cells were removed from the femur of a BALB/c mouse and suspended in a 10% FCS-RPMI solution. The cell suspension was put into a plastic Petri dish having a diameter of 10 cm and left to stand still (in an incubator, 5% CO2, at 37° C.). Two hours later, only floating cells were recovered, and adhesion cells were removed. 1×10^5 floating cells were cultured for 48 hours together with a 20% culture supernatant of L929 fibroblastoma and the compound of the formula (I) on a microplate with 96 wells by a 10% FCS-RPMI solution (in an incubator, 5% CO2, at 37° C.). Then, 0.5 μCi of ^3 H-TdR was added thereto, and the mixture was further cultured for 4 hours. Then, cells were collected by a cell harvester, and the radioactivity (dpm) of ^3 H-TdR uptaken into the cells, was measured. Such measured amounts of ^3 H-TdR uptaken into the cells were used as indices for the proliferation of bone mallow cells, and the radioactivity at each concentration (from 0.001 to 1,000 μg/ml) of the compound of the formula (I) was compared with the control value where the L929 culture supernatant was added alone, to calculate the IC50 value. In these Tables 12 and 13, the results of the bone mallow cells are shown by (c).
For the basic procedure of this test, reference was made to Seikagakujikken Koza compiled by Japan Biochemistry Association, Vol. 5, p. 266-270 (published by Tokyo Kagaku Dojin in 1986).

The test system of test [2] is IgGl antibody production from murine spleen B cells. As to the kind of experiment: Effects on the IgGl antibody production from murine spleen cells (LPS + IL4). It counts as cell-based, BALB/c mouse. To be noted: Mus musculus, B-cell, 168 h; spleen B cells, LPS 10 μg/ml, IL4 100 U/ml, 7 days, enzyme-immunoassay; read-out: IC50 value, IgGl antibody production. The method, then: as §1, §2, §3

For test [3], the system named is murine mixed lymphocyte reaction (spleen cells of BALB/c and C57BL/6 mice). As to the kind of experiment: Effects on the murine mixed lymphocyte reaction (3H-TdR uptake). The settings on record: Mus musculus, BALB/c + C57BL/6 spleen cells, 48 hours, read-out: IC50 value, b (murine mixed lymphocyte reaction). It counts as cell-based. Here is the method:
Using spleen cells of BALB/c and C57BL/6 mice, the effect of the compound of the formula (I) on the murine mixed lymphocyte reaction in both sides, was studied. Namely, spleen cells of both types of mice were mixed in an equal amount of 5×10^5 cells each, and the mixed cells were cultured together with the compound of the formula (I) for 48 hours on a microplate with 96 wells by a 10% FCS-RPMI solution (in an incubator, 5% CO2, at 37° C.). Then, 0.5 μCi of ^3 H-TdR was added thereto, and the mixture was further cultured for from 16 to 18 hours. Then, cells were collected by a cell harvester, and the radioactivity (dpm) of ^3 H-TdR uptaken into the cells, was measured. Such measured amounts of ^3 H-TdR uptaken into the cells were used as indices for the mixed lymphocyte reaction, and the radioactivity at each concentration (from 0.001 to 1,000 μg/ml) of the compound of the formula (I) was compared with the non-treated control value, to calculate the Ic50 value.
For the basic procedure for this test, reference was made to Selected methods in cellular immunology, p. 147-149 (translated by Katsuyuki Imai et al., published by Rikogakusha, (1982)).

Test [4] has as its system IgE antibody production from murine spleen B cells. The test is described as follows: Effects on the IgE antibody production from murine spleen cells (LPS + IL4). It counts as cell-based, BALB/c mouse. To be noted: Mus musculus, B-cell, 168 h; spleen B cells, LPS 10 μg/ml, IL4 100 U/ml, 7 days, enzyme-immunoassay; read-out: IC50 value, IgE antibody production. Here is the method: as §1, §2, §3

In brackets after ≈: the same amount, converted by molar mass.

What is called IC50 is the concentration that inhibits the measured activity by half. For `C[C@]1(O)C=C[C@H]2CO[C@@H]1O2` [Compound 28], the IC50 was 590 µg/mL in test [1]; 76 µg/mL (≈ 535 µM) in the test on murine thymocytes; 150 µg/mL (≈ 1060 µM) in the test on murine bone mallow cells; 380 µg/mL in test [2]; 280 µg/mL in test [3]; 280 µg/mL in test [4].
As to `CCCC[C@]1(O)C=C[C@H]2CO[C@@H]1O2` [Compound 30], the IC50 in test [1] is 150 µg/mL; in the test with murine thymocytes, 110 µg/mL (≈ 597 µM); in the test on murine bone mallow cells it was 190 µg/mL (≈ 1030 µM); in test [2], 190 µg/mL; in test [3], 540 µg/mL; in test [4] it was 24 µg/mL.
In the case of `CCCC#C[C@]1(O)C=C[C@H]2CO[C@@H]1O2` [Compound 31], the IC50 in test [1] was determined as 10 µg/mL; in the test on murine thymocytes, 180 µg/mL (≈ 927 µM); in the test on murine bone mallow cells it was 520 µg/mL (≈ 2680 µM); in test [2], 1.5 µg/mL; in test [3], 560 µg/mL; in test [4], 140 µg/mL.
As to `CC(=O)O[C@@]1(C)C=C[C@H]2CO[C@@H]1O2` [Compound 32, 2-O-acetyl-1,6-anhydro-3,4-dideoxy-2-C-methyl-β-D-threo-hex-3-enopyranose], the IC50 in test [1] worked out at 350 µg/mL; in the test on murine thymocytes, 320 µg/mL (≈ 1740 µM); in the test with murine bone mallow cells, 540 µg/mL (≈ 2930 µM); in test [2], 400 µg/mL; in test [3], 540 µg/mL; in test [4], 2.8 µg/mL.
Regarding `CCCCO[C@H]1C=C[C@H]2CO[C@@H]1O2` [Compound 40], the 50% inhibitory concentration (IC50) is 110 µg/mL in test [1]; 160 µg/mL (≈ 868 µM) with murine thymocytes; above 1000 µg/mL in the test with murine bone mallow cells; 0.067 µg/mL in test [2]; above 1000 µg/mL in test [3]; 0.0026 µg/mL in test [4].
`Cc1ccc(S(=O)(=O)O[C@H]2C=C[C@H]3CO[C@@H]2O3)cc1` [Compound 46, 1,6-anhydro-3,4-dideoxy-2-O-(p-toluene)sulfonyl-β-D-threo-hex-3-enopyranose]: the IC50 was 0.35 µg/mL in test [1]; 110 µg/mL (≈ 390 µM) in the test on murine thymocytes; 190 µg/mL (≈ 673 µM) with murine bone mallow cells; 0.25 µg/mL in test [2]; 22 µg/mL in test [3]; 0.32 µg/mL in test [4].
For the compound `C1=C[C@H]2CO[C@H](O2)[C@H]1OCc1ccccc1` [Compound 48], the IC50 in test [1] was 35 µg/mL; with murine thymocytes it was 120 µg/mL (≈ 550 µM); with murine bone mallow cells, 430 µg/mL (≈ 1970 µM); in test [2], 34 µg/mL; in test [3], above 1000 µg/mL; in test [4], 41 µg/mL.
As to `O=C(CCCCCCCCCCCCCCCO)O[C@H]1C=C[C@H]2CO[C@@H]1O2` [Compound 49, 1,6-anhydro-3,4-dideoxy-2-O-(16-hydroxy)hexadecanoyl-β-D-threo-hex-3-enopyranose], the IC50 was 0.43 µg/mL in test [1]; 11 µg/mL (≈ 28.8 µM) in the test on murine thymocytes; 41 µg/mL (≈ 107 µM) with murine bone mallow cells; below 0.1 µg/mL in test [2]; 32 µg/mL in test [3]; below 0.1 µg/mL in test [4].
Consider `Cc1ccccc1C(=O)O[C@H]1C=C[C@H]2CO[C@@H]1O2` [Compound 50], for which the IC50 in test [1] was below 0.001 µg/mL; in the test on murine thymocytes it was 52 µg/mL (≈ 211 µM); with murine bone mallow cells, 380 µg/mL (≈ 1540 µM); in test [2], below 0.001 µg/mL; in test [3] it was 180 µg/mL; in test [4], below 0.001 µg/mL.
On to `O[C@@H]1C=C[C@H]2CO[C@@H]1O2` [Compound 103, 1,6-anhydro-3,4-dideoxy-β-D-erythro-hex-3-enopyranose], for which the IC50 in test [1] is 1.3 µg/mL; in the test with murine thymocytes, 780 µg/mL (≈ 6090 µM); in the test with murine bone mallow cells, above 1000 µg/mL; in test [2], 0.45 µg/mL; in test [3], above 1000 µg/mL; in test [4], 2.1 µg/mL.
In the case of `CCCCCCCCCCCCCCCC(=O)O[C@@H]1C=C[C@H]2CO[C@@H]1O2` [Compound 109], the IC50 in test [1] is 31 µg/mL; in the test on murine thymocytes, 550 µg/mL (≈ 1500 µM); in the test on murine bone mallow cells, above 1000 µg/mL; in test [2] it was below 0.1 µg/mL; in test [3], 740 µg/mL; in test [4], below 0.1 µg/mL.
